Measurements taken from patent US9943502B2, “Lung cancer adjuvant therapy” (Texas Tech University System, priority 2014, dated 2018).
“Also recorded” adds a separate entry of the source.

How the values were obtained:
[1] = tested on: A549 cells; assay: Western blot analyses of PARP1, p21 and survivin; type: cell-based; settings: 24 and 48 h, P<0.05
Method: Western blot analyses. […] Immunoblotting was performed using different primary antibodies and α-tubulin as the internal control.

[2] = tested on: lung cancer A549 cells xenografts; assay: Treatment of mouse xenografts: tumor growth; type: in vivo, female athymic mice; settings: intra-tumoral injection three times per week; Cis 2.5 mg/Kg, LMB 2 μg/Kg
Method: Xenograft animal model. The handling of animals was in accordance with the Institutional Animal Care and Use Committee. Female athymic mice, 7-8 weeks of age and 23.5 g in weight (Charles River Laboratory) received subcutaneous injection of 1×10^6 A549 or A549CRM1− cells in the lower flank (n=8/group). Tumor volume was measured by a digital caliper (Thermo Fisher Scientific). The major longitudinal diameter (length) and the major transverse diameter (width) were determined. Tumor volume was calculated based on caliper measurements by the following formula: Tumor volume=½ (length×width^2).
(§1) Treatment of mouse xenografts. Thirty-two female athymic mice, 7-8 weeks of age and 23.5 g in weight (strain code 088, Charles River Laboratory) were each injected subcutaneously with 1×10^6 lung cancer A549 cells in the lower flank. […] All injections were carried out for three times per week. Mice body weights and tumor sizes were measured three times per week.

[3] = tested on: A549 cells; assay: Array-based SYBR Green RT-PCR (RT2 Profiler PCR array, Human Cancer Drug Targets, 84 genes); type: cell-based
Method: Array-based SYBR® Green RT-PCR. Constitutive gene expression profiling was performed using the RT^2 Profiler™ PCR array to analyze the expression of 84 genes involving in cancer signal pathways (Human Cancer Drug Targets, Qiagen) based on manufacturer's instructions and our previous publications^33, 34. Studies were performed in duplicate for each group.

[4] = tested on: A549 cells; assay: Analysis of cell cycle by flow cytometry; type: cell-based; settings: 25 μM cisplatin and/or 0.5 nM LMB, 24 and 48 h
Method: Analysis of cell cycle by flow cytometry. The cells were harvested after 24 and 48 h of treatment. […] Cell cycle analysis was conducted by a Guava EasyCyte™ Flow Cytometer (Millipore) as previously described^32, 33. Each sample was run in triplicate and each experiment was repeated three times.

[5] = Treatment of mouse xenografts: body weight and side effects; type: in vivo, female athymic mice; settings: two weeks after treatment; without deteriorating behavior and health condition
Method: as §1

[6] = tested on: A549CRM1− cells; assay: Cell viability assay (MTT); type: cell-based; settings: FIG. 4A, P<0.05
Method: Cell viability assay. Cell viability was evaluated using the MTT (3-(4,5-dimethylthiazol-2-yl)-2,5-diphenyltetrazolium bromide) assay as previously described^29, 33. […] Studies were performed independently in triplicate.

[7] = in vivo; cited from earlier work
[8] = tested on: normal bronchial epithelial cells; settings: cited from earlier work
[9] = tested on: lung cancer cells; settings: cited from earlier work
[10] = tested on: lung tissues; assay: Mouse model of NNK-induced lung tumors, Western blot of lung tumors; type: in vivo, FVB/N mice; settings: NNK-treated mice, P<0.01
Method: Mouse model and NNK-induced lung tumors. Male FVB/N mice are an intermediately susceptible strain with regard to spontaneous lung tumor formation and have been used for studies of NNK-induced lung tumorigenesis^31. Mice were each given two intra-peritoneal injections of 3 mg NNK per week (NNK-treated group, n=8) or 0.9% saline (vehicle control group, n=8). From each group, mice were sacrificed at 32-weeks after the last NNK- or saline-treatment. Lung tissues were fresh frozen or formalin-fixed and paraffin-embedded.

[11] = tested on: CRM1; assay: CRM1 expression (qRT-PCR, Western blot) in NNK-transformed BEAS-2B cells; type: cell-based, human; settings: BEAS-2BNNK, P<0.05
Method: (§2) Human normal lung epithelial cells BEAS-2B with NNK exposure/transformation or CRM1 stable overexpression. Human normal bronchial epithelial cell line BEAS-2B was obtained from American Type Culture Collection (ATCC). (1) For short-term NNK exposure, BEAS-2B cells were treated with 0, 10, 75, or 150 μM NNK for 24 and 72 h in triplicate as described in our previous study^29; (2) BEAS-2BNNK, an in vitro transformed cell model derived from BEAS-2B, was generated by exposure to NNK (15 μM) for 24 h and then continuously sub-cultured for 9 passages. […] Similarly, BEAS-2B was transfected with vector control for comparison. BEAS-2B, BEAS-2BNNK, and BEAS-2BCRM1+ cells were cultured in LHC-9 medium (Invitrogen) containing 100 U penicillin/mL and 100 μg/mL streptomycin.
Isolation of total RNA and quantitative real-time PCR (qRT-PCR). Total RNA was isolated using an RiNeasy® plus mini kit (Qiagen) following the manufacturer protocol. One-Step RT-PCR kit with SYBR green was used for amplification of total RNA (75 ng) by following the manufacturer's protocol (BioRad) and our recent publication^32. […] Threshold cycle number (Ct value) was analyzed using CFX Manager Software (Bio-Rad). The Ct value of CRM1 was normalized to the Ct value of GAPDH from same sample and the fold change in the expression was calculated by using the ΔΔCt method. […]

[12] = tested on: BEAS-2B cells; assay: Soft agar colony assay of NNK-transformed BEAS-2B cells; type: cell-based, human; settings: NNK 15 μM for 24 h, then 9 passages (BEAS-2BNNK), P<0.05
Method: as §2
Soft agar colony assay (Anchorage independent growth assay). Cells were suspended at 5×10^4 cells/mL for BEAS-2B, BEAS-2BNNK, and BEAS-2BCRM1+ or 2×10^4 cells/mL for A549 and A549CRM1− cells in growth medium containing 0.35% agar. Cell suspension was added to a 6-well tissue culture plate pre-coated with 0.7% solid agar. After 9-11 days of incubation (9 days for A549 and 11 days for BEAS-2B), the number of colonies/microscope area (6 randomly selected areas/well) was counted and their sizes were analyzed using cell staining (0.005% Crystal Violet) by microscope. This study was done in triplicate.

[13] = tested on: phospho-p53 (Thr55); assay: phospho-p53 (Thr55) protein expression in BEAS-2B cells after NNK exposure; type: cell-based, human
Method: as §2

[14] = cisplatin 10 and 25 μM with or without 0.5 nM LMB

## N.N.[Cl][Pt][Cl] [Cis, cisplatin]
[1]
  survivin expression level compared to controls: significantly decreased
[1]; [14]
  PARP1 protein expression compared to vehicle-treated cells: significantly increased in a dose-response manner
  p21 protein expression compared to vehicle-treated cells: significantly increased in a dose-response manner
[2]
  tumor growth compared to the vehicle-treated control: significant decrease in tumor growth; also recorded: significantly delayed tumor growth
[3]; 25 μM cisplatin, P<0.05
  expression level of AURKA, AURKB, CDK1, HIF1A, MDM4, PLK1, PLK4, and TNKS compared to the control: significantly decreased expression level
  expression of CTSB, GRB2, MDM2, and NF-κB compared to the control: increased expression
[3]; A549 cells
  NF-κB expression: increased expression of NF-κB
[4]
  cell cycle distribution compared with the control: significantly higher proportion of cells in S and G2/M phases
[5]
  body weight for mice: started to decrease gradually
[6]
  sensitivity of A549CRM1− cells compared with A549 cells: even more sensitive

## CCC(=C/[C@H](C)C/C=C/C(C)=C/[C@@H](C)C(=O)[C@@H](C)[C@H](O)[C@@H](C)C/C(C)=C/C(=O)O)/C=C/[C@@H]1OC(=O)C=C[C@@H]1C [LMB, leptomycin B]
[7]
  side effects in the phase I clinical trial: malaise and anorexia
[8]
  effects on normal bronchial epithelial cells: minimal effects
[2]
  tumor growth compared to the vehicle-treated control: growth curves followed a similar trend
[3]; 0.5 nM LMB
  gene expression profile compared to the control group: No significant difference
[4]
  cell cycle distribution compared with the control: did not alter the cell cycle distribution
[9]
  effect on lung cancer cells: inhibit lung cancer cell growth and induce cytotoxicity

## CN(CCCC(=O)c1cccnc1)N=O [NNK, 4-(methylnitrosamino)-1-(3-pyridyl)-1-butanone]
[10]; 32 weeks after last treatment
  CRM1 expression in lung tumor tissues compared with normal tissues: increased CRM1 expression
[10]
  p-p53 at Thr55 in lung tumors compared with normal lung tissues: significant increase
[11]
  CRM1 expression at the mRNA level compared to vehicle-treated BEAS-2B cells: 2.6 folds
  CRM1 expression at the protein level compared to vehicle-treated BEAS-2B cells: ~1.5 folds
[12]
  soft agar colony number and colony size compared with vehicle-treated BEAS-2B cells: significant increase in both colony number and colony size
[13]; BEAS-2BNNK cells, FIG. 2B
  phosphorylated-p53 (p-p53) at Thr55 in NNK-transformed cells: overexpressed
[13]; NNK 10, 75 and 150 μM for 24 and 72 h, P<0.05
  protein expression levels of p-p53 at Thr55 compared to vehicle-treated BEAS-2B cells: dose-dependent decrease
